The values below come from ChEMBL document CHEMBL1201862, “PubChem BioAssay data set” (2004).

As a reminder, the IC50 is the midpoint of a concentration-inhibition curve. What is called AC50 is the concentration giving half of the maximal activity seen.

Assay [1] in a line: A Cell Based Assay for the Identification of Probe candidate Compounds with Anti- Venezuelan Equine Encephalitis virus. [Related pubchem assays: 2409, 2419, 1621, 2238, 2405, 2024, 2065, 2402, 2414, 1635, 1650, 2244 ]. The format is functional.
Assay [2] deals with Vero. The assay can be described thus: Vero cell viability after compound exposure – synthesized analogs, set II, cytotoxicity control for West Nile virus antiviral project, SAR follow-up (AID 2402). In kind it is functional. The following applies: Chlorocebus sabaeus.
For assay [3], the system named is Vero. As to the kind of experiment: antiviral protection of cells from WNV – synthesized analogs, SAR follow-up (AID 2238). The conditions noted are these: Chlorocebus sabaeus. The format is functional, cell-based.
The test system of assay [4] is Vero. As to the kind of experiment: Vero 76 cell viability after compound exposure – Vero 76 cells, synthesized analogs, cytotoxicity control for West Nile virus antiviral project, SAR follow-up (AID 2414). The format is functional. The following applies: Chlorocebus sabaeus.
For assay [5], the target named is T1, Ubiquitin-conjugating enzyme E2 N (Homo sapiens, UniProt P61088).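 Note: Dose-response confirmation in a TR-FRET assay detecting UBC13-driven polyubiquitin chain formation, inhibition measured.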
T1 sequence (P61088 whole entry): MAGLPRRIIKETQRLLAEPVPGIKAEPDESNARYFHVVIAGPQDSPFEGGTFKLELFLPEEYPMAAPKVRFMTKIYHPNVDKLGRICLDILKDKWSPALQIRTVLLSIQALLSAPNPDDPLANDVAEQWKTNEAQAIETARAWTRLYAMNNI
The format is functional.

The test system of assay [6] is Vero. The assay can be described thus: host cell viability loss, Vero E6 – synthesized analogs, cytotoxicity control for West Nile virus antiviral project, SAR follow-up (AID 2244). In kind it is functional. The conditions noted are these: Chlorocebus sabaeus.
Assay [7] deals with T2, Dual specificity protein phosphatase 3 (Homo sapiens, UniProt P51452). As to the kind of experiment: SAR VHR1 Fluorescent Assay for In Vitro dose response studies. [Related pubchem assays (depositor defined):AID1654, AID1661, AID1878, AID1992, AID2004, AID2070, AID2085]. The format is functional.
T2 sequence (P51452 whole entry): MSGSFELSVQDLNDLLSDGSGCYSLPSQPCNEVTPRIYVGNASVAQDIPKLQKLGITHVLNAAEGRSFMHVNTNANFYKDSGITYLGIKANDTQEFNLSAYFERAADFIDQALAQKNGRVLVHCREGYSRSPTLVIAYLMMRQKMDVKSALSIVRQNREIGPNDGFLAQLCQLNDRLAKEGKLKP
For assay [8], the target named is T3, Tyrosine-protein phosphatase non-receptor type 7 (Homo sapiens, UniProt P35236).
T3 sequence (P35236 whole entry): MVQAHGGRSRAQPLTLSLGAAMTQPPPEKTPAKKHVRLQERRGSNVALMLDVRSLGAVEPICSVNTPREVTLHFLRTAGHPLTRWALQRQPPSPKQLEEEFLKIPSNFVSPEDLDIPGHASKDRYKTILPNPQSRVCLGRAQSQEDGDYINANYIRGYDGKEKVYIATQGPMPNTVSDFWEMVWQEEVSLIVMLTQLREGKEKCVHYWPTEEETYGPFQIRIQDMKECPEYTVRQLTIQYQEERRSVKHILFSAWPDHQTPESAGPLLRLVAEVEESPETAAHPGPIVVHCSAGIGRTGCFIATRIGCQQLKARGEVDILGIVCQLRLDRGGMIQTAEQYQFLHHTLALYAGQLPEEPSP
The assay can be described thus: redox-active compounds inhibiting HePTP phosphatase – biochemical, fluorescence, mechanism study (AID 2068). In kind it is functional.

For assay [9], the target named is T4, Dual specificity protein phosphatase 6 (Rattus norvegicus, UniProt Q64346).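 Note: confirmatory in vitro dose-response testing of MKP-3 inhibition; recombinant His-tagged MKP-3 made in E. coli BL21 with OMFP substrate.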
T4 sequence (Q64346 whole entry): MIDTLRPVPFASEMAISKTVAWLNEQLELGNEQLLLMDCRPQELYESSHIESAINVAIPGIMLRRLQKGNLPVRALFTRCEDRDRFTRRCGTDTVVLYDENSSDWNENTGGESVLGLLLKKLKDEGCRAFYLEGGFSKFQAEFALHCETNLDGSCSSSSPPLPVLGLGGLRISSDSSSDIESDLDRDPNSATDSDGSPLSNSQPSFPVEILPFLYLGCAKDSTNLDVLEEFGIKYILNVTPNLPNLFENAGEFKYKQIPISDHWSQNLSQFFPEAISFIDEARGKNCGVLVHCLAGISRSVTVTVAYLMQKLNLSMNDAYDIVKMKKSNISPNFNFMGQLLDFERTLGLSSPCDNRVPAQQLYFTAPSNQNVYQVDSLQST
The format is functional.

The target in assay [10] is T2, Dual specificity protein phosphatase 3. The assay can be described thus: SAR VHR1 absorbance Assay for In Vitro dose response studies. [Related pubchem assays (depositor defined):AID1654, AID1661, AID1878, AID1992, AID2004].
Assay [11] in a line: HepG2 cell cytotoxicity, dose response, cytotoxicity control for non-replicating M. tuberculosis project (AID 489018). In kind it is functional. The conditions noted are these: Mycobacterium tuberculosis.
Assay [12] concerns the target T5, Rac GTPase-activating protein 1 (Homo sapiens, UniProt Q9H0H5).
T5 sequence (Q9H0H5 whole entry): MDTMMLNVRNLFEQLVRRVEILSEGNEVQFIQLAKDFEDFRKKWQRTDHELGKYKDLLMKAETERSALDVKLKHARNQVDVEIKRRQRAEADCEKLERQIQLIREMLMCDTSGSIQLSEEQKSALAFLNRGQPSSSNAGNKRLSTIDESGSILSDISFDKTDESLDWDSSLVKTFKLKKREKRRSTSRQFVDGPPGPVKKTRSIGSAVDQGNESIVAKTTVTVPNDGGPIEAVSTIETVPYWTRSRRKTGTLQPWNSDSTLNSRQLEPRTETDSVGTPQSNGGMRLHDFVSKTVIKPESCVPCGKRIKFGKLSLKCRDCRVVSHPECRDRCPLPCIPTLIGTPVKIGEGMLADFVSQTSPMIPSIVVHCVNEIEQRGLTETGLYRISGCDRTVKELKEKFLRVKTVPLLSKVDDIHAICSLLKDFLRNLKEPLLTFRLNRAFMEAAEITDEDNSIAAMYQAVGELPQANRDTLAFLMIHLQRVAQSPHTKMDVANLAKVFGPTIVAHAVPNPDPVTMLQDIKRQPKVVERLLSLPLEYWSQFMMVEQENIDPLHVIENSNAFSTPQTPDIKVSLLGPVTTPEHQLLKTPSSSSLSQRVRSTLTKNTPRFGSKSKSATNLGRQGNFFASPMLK
The assay can be described thus: blockers of MgcRacGAP-driven Rac1 GTP hydrolysis – biochemical, ADP Hunter fluorescence, primary and confirmatory, confirmation (AID 624330). The format is functional.

Another assay can be described thus: cells. The format is functional.
Assay [13] can be described thus: loss of viability in HepG2 cells – cell-based, CellTiter-Glo, cherry-picked, cytotoxicity control for Shn3 inhibitor project, dose response (AID 624134). In kind it is functional. A general note: Cellular ATP, detected with luciferase, serves as a proxy for viable cell number.
Assay [14] is described as follows: microbe, parasite or virus in culture. The format is functional. The following applies: Mycobacterium tuberculosis.
Assay [15] can be described thus: blockade of melanocortin 4 receptor signaling – cell-based, plate reader, cherry pick, counter-screen for LGR2 antagonist project, dose response (AID 743444).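 Note: transfected HEK 293 cells stimulated with alpha-MSH peptide; potency of inhibitors of the alpha-MSH evoked signal.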 In kind it is functional. Background: The purpose of a counterscreen is to sort out artefacts and off-target activity.
The nature of assay [16]: toxicity toward HepG2 liver cells – cell-based, plate reader, cherry-pick, antagonist series, cytotoxicity control, dose response (AID 743416). The format is functional.
Assay [17] is described as follows: A549 cell cytotoxicity, dose response, cytotoxicity control, plate reader, cherry-pick, antagonist series (AID 743412). In kind it is functional, cell-based.
Assay [18] in a line: viability loss in HeLa cells – cytotoxicity control for MgcRacGAP inhibitor project, dose response (AID 624300). The format is functional.
Assay [19] can be described thus: non-specific 3'UTR reporter inhibition in Clone20-Shn3RL – cell-based, Renilla luciferase, cherry-picked, counter-screen for Shn3 inhibitor project, dose response (AID 624133). The format is functional.
Assay [20] in a line: reduction of Shn3 3'UTR-driven luciferase in osteoblasts – cell-based, Clone20 osteoblasts, firefly luciferase, cherry-picked, dose response (AID 624132).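 Note: firefly luciferase luminescence from reporter carrying the Shn3 3'UTR in osteoblasts.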 The format is functional.
The nature of assay [21]: THP-1 cell cytotoxicity, dose response, cytotoxicity control for non-replicating M. tuberculosis project (AID 489025). The format is functional.
Assay [22] can be described thus: blockers of bursicon-stimulated LGR2 cAMP reporter – cell-based, HEK293, CRE-luciferase reporter, cherry pick, set 2, dose response (AID 743343).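 Note: transfected cells were stimulated with diluted bursicon conditioned medium after compound addition.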 The format is functional. In general terms: A reporter such as luciferase makes a cellular process visible.

Activity calls are given as the source filed them. A value given as a limit tells only on which side of the number the result lay.

On to `Cc1cccc2c1-c1sc(C(=O)NCCCN3CCC(C)CC3)cc1CO2`, for which the IC50 is 8.52 µM (active) in assay [1], > 40 µM (active) in the assay on Vero [3] and > 20 µM (inactive) in [5]. In addition, the results for the CC50 in the assay on Vero [2], in the assay on Vero [4] and in the assay with Vero [6] were 10.1 µM (active), 20 µM (active) and 10 µM (active), respectively.

In the case of `S=C(c1cn(CCOc2ccccc2)c2ccccc12)N1CCCCC1`, the IC50 was > 100 µM (inactive) in assay [7], 31.7 µM (active) in assay [8], > 100 µM (inactive) in assay [9] and > 100 µM (inactive) in assay [10].

Regarding `CCn1c2ccccc2c2cc(CNCc3ccc(OC)cc3OC)ccc21`, the CC50 in assay [11] is 15.6 µM (active); in [14], 19.3 µM (active); in assay [18], 37 µM (active); in assay [21], 16.7 µM (active). For the same compound, the IC50 was 99.7 µM (active) in assay [12] and 12.8 µM (active) in “cells”. For the same compound, the AC50 in assay [13] is 16.9 µM (active); in [15], 32.9 µM (active); in [16], 13.8 µM (active); in assay [17] it was 13.6 µM (active); in assay [19] it was 14.8 µM (active); in [20] it was 14.7 µM (active). Further, the AC50 in assay [22] is 18.6 µM (active).
